Source: the OligoGym collection
Where “and” joins values, the source holds several entries; their conditions need not be identical. Identical values can stand only once. After the bases stand the sugars from the 5' end (letter, count) and the backbone: PS all phosphorothioate, else s phosphorothioate and o phosphodiester by linkage. Methylation of C is not given here. e = 2'-O-(2-methoxyethyl) (MOE); k = constrained ethyl (cEt); d = 2'-deoxy (DNA); m = 2'-O-methyl

Target: HSD17B13
Settings: ASO, HepaRG

| Sequence | target mRNA inhibition (1 µM) | also measured |
| --- | --- | --- |
| TCCAUAATAATAGCTC (sugars k3 d1 m1 d8 k3, PS) | 58% |  |
| TCCCAACCCAAGCTAC (sugars k3 d10 k3, PS) | 8% |  |
| TCCCAAGGCCTGAAGT (sugars k3 d10 k3, PS) | 43% |  |
| TCCGGTAAGAATTTCG (sugars k3 d10 k3, PS) | 63% |  |
| TCCTGTGTTAGCTTTA (sugars k3 d9 k3 e1, PS) | 75% and 50% | target mRNA inhibition (0.02 µM): 0%; target mRNA inhibition (0.078 µM): 0%; target mRNA inhibition (0.313 µM): 34%; target mRNA inhibition (1.25 µM): 50%; target mRNA inhibition (5 µM): 81% |
| TCGGCACTCAGCTGCA (sugars k3 d10 k3, PS) | 52% |  |
| TCGGCTGGATATACTG (sugars k3 d10 k3, PS) | 23% |  |
| TCGGGAAGTTTAGACA (sugars k3 d10 k3, PS) | 43% |  |
| TCTAAACATCTCTGGG (sugars k3 d1 m1 d8 k3, PS) | 36% |  |
| TCTAAACATCTCTGGG (sugars k3 d10 k3, PS) | 40% |  |
| TCTAAACATCTCTGGG (sugars kkdddddddddkekek, PS) | 21% |  |
| TCTAAACTAGTGGTAA (sugars k3 d10 k3, PS) | 24% |  |
| TCTAAGTTAGCCCCCA (sugars k3 d1 m1 d8 k3, PS) | 7% |  |
| TCTACCACATACGCAT (sugars k3 d10 k3, PS) | 55% |  |
| TCTATTAGTTGGCCTG (sugars k3 d10 k3, PS) | 26% |  |
| TCTATTGATTGGCTTA (sugars k3 d10 k3, PS) | 39% |  |
| TCTCCATCATCGATGG (sugars k3 d10 k3, PS) | 24% |  |
| TCTCTTAGCTGTGCAC (sugars k3 d10 k3, PS) | 79% | target mRNA inhibition (0.02 µM): 15%; target mRNA inhibition (0.078 µM): 30%; target mRNA inhibition (0.313 µM): 52%; target mRNA inhibition (1.25 µM): 74%; target mRNA inhibition (5 µM): 89% |
| TCTCUTGACAATGGTT (sugars k3 d1 m1 d8 k3, PS) | 62% |  |
| TCTGGGACCAAGGATA (sugars k3 d9 k3 e1, PS) | 57% |  |
| TCTTAAACCTTCCCTG (sugars kkdddddddddkekek, PS) | 24% |  |
| TCTTAAGATACCCAGG (sugars k3 d10 k3, PS) | 58% |  |
| TCTTAAGGATCATTGC (sugars k3 d10 k3, PS) | 0% |  |
| TCTTAGCTGTGCACTC (sugars k3 d1 m1 d8 k3, PS) | 71% |  |

| Sequence | target mRNA inhibition (1 µM) | also measured |
| --- | --- | --- |
| TCTTATTGGTAAGTAT (sugars k3 d10 k3, PS) | 25% |  |
| TCTTGACAATGGTTGA (sugars kkdddddddddkekek, PS) | 40% |  |
| TCTTGGGTCCATTGTT (sugars k3 d10 k3, PS) | 60% |  |
| TCTTTTTATAGACTGG (sugars k3 d10 k3, PS) | 82% | target mRNA inhibition (0.02 µM): 0%; target mRNA inhibition (0.078 µM): 0%; target mRNA inhibition (0.313 µM): 35%; target mRNA inhibition (1.25 µM): 55%; target mRNA inhibition (5 µM): 90% |
| TGAACAGTCTTAAACC (sugars k3 d1 m1 d8 k3, PS) | 57% |  |
| TGAACCCAGTATTCAC (sugars k3 d10 k3, PS) | 10% |  |
| TGAAGTTAGTATAGTT (sugars k3 d9 k3 e1, PS) | 70% |  |
| TGAATAGCAAGCCAAC (sugars k3 d10 k3, PS) | 4% |  |
| TGACAACAGAGTTCTG (sugars k3 d10 k3, PS) | 11% |  |
| TGACAATGGTTGATAG (sugars k3 d10 k3, PS) | 16% |  |
| TGACAATGGTTGCCAC (sugars k3 d1 m1 d8 k3, PS) | 55% |  |
| TGACAATGGTTGCCAC (sugars k3 d9 k3 e1, PS) | 45% |  |
| TGAGAAGATCGGCTGG (sugars k3 d10 k3, PS) | 37% |  |
| TGAGAGAACTTATACA (sugars k3 d10 k3, PS) | 32% |  |
| TGAGGTAAGGAATCCC (sugars k3 d10 k3, PS) | 2% |  |
| TGAGGTTTTGATACCA (sugars k3 d10 k3, PS) | 63% |  |
| TGAGTAAACGACTCTG (sugars k3 d10 k3, PS) | 23% |  |
| TGATATACGATGGAAC (sugars k3 d10 k3, PS) | 13% |  |
| TGATGGTGATCAGAAG (sugars k3 d10 k3, PS) | 0% |  |
| TGATGTAGTGGGAGTC (sugars k3 d9 k3 e1, PS) |  | target mRNA inhibition (0.02 µM): 5%; target mRNA inhibition (0.078 µM): 0%; target mRNA inhibition (0.313 µM): 36%; target mRNA inhibition (1.25 µM): 62%; target mRNA inhibition (5 µM): 74% |
| TGATGTAGTGGGAGTC (sugars k3 d10 k3, PS) | 65% |  |
| TGATTACAGCATCAAG (sugars k3 d10 k3, PS) | 69% |  |
| TGATTCGAAACTATTC (sugars k3 d10 k3, PS) | 29% |  |
| TGATTGAGTTCTCCAC (sugars k3 d9 k3 e1, PS) | 30% |  |

| Sequence | target mRNA inhibition (1 µM) | also measured |
| --- | --- | --- |
| TGATTGAGTTCTCCAC (sugars kkdddddddddkekek, PS) | 32% |  |
| TGCATCTTAAGATACC (sugars k3 d9 k3 e1, PS) | 37% |  |
| TGCAUCTTAAGATACC (sugars k3 d1 m1 d8 k3, PS) | 51% |  |
| TGCCAGATTGCACAAA (sugars k3 d10 k3, PS) | 54% |  |
| TGCCAGGGAATGCTCA (sugars k3 d10 k3, PS) | 23% |  |
| TGCGAGAAATCTAAGA (sugars k3 d10 k3, PS) | 50% |  |
| TGCTAAGTAGTAATTC (sugars k3 d10 k3, PS) | 32% |  |
| TGCTAGTGCCAAACCA (sugars k3 d9 k3 e1, PS) | 73% | target mRNA inhibition (0.02 µM): 8%; target mRNA inhibition (0.078 µM): 16%; target mRNA inhibition (0.313 µM): 38%; target mRNA inhibition (1.25 µM): 54%; target mRNA inhibition (5 µM): 71% |
| TGCTCCATAATAATAG (sugars k3 d10 k3, PS) | 35% |  |
| TGCTGAGAAGATCGGC (sugars k3 d10 k3, PS) | 7% |  |
| TGCTGCTAGTGCCAAA (sugars k3 d1 m1 d8 k3, PS) | 50% |  |
| TGGAATGCTACTTGAA (sugars k3 d1 m1 d8 k3, PS) | 79% | target mRNA inhibition (0.02 µM): 13%; target mRNA inhibition (0.078 µM): 27%; target mRNA inhibition (0.313 µM): 35%; target mRNA inhibition (1.25 µM): 66%; target mRNA inhibition (5 µM): 91% |
| TGGAATGCTACTTGAA (sugars kkdddddddddkekek, PS) | 68% |  |
| TGGAGGAAAGCTTCAA (sugars k3 d10 k3, PS) | 10% |  |
| TGGCATGGCTACAGAT (sugars kkdddddddddkekek, PS) | 58% |  |
| TGGCCGCACACTGAAG (sugars k3 d10 k3, PS) | 0% |  |
| TGGCCTTACCAGAATT (sugars k3 d10 k3, PS) | 46% |  |
| TGGTAACGGTGATCAA (sugars k3 d10 k3, PS) | 74% | target mRNA inhibition (0.02 µM): 14%; target mRNA inhibition (0.078 µM): 28%; target mRNA inhibition (0.313 µM): 58%; target mRNA inhibition (1.25 µM): 76%; target mRNA inhibition (5 µM): 88% |
| TGGTAATCTCTTCATC (sugars k3 d10 k3, PS) | 23% |  |
| TGGTGGACTTCAGAGT (sugars k3 d10 k3, PS) | 17% |  |
| TGTAAAGGCTGGGTGA (sugars k3 d10 k3, PS) | 26% |  |
| TGTAAGCTGAGAGTTC (sugars k3 d10 k3, PS) | 45% |  |
| TGTCAGAGACTCTGTG (sugars k3 d10 k3, PS) | 39% |  |
| TGTCCACCTTTAAATG (sugars k3 d1 m1 d8 k3, PS) | 17% |  |

| Sequence | target mRNA inhibition (1 µM) | also measured |
| --- | --- | --- |
| TGTCCACCTTTAAATG (sugars kkdddddddddkekek, PS) | 27% |  |
| TGTCCAGAAGTATGTG (sugars k3 d10 k3, PS) | 0% |  |
| TGTCTAAACATCTCTG (sugars k3 d9 k3 e1, PS) | 69% |  |
| TGTCTAAACATCTCTG (sugars k3 d10 k3, PS) | 58% |  |
| TGTCTAAACATCTCTG (sugars kkdddddddddkekek, PS) | 59% |  |
| TGTCTCCAATACAGGC (sugars k3 d10 k3, PS) | 39% |  |
| TGTCUAAACATCTCTG (sugars k3 d1 m1 d8 k3, PS) | 44% |  |
| TGTGATTGAGTTCTCC (sugars k3 d9 k3 e1, PS) | 52% |  |
| TGTGATTGAGTTCTCC (sugars k3 d10 k3, PS) | 62% | target mRNA inhibition (0.02 µM): 1%; target mRNA inhibition (0.078 µM): 14%; target mRNA inhibition (0.313 µM): 20%; target mRNA inhibition (1.25 µM): 42%; target mRNA inhibition (5 µM): 70% |
| TGTGATTGAGTTCTCC (sugars kkdddddddddkekek, PS) | 11% |  |
| TGTGGCATGGCTACAG (sugars k3 d9 k3 e1, PS) | 25% |  |
| TGTGGCATGGCTACAG (sugars k3 d10 k3, PS) | 24% |  |
| TGTGTAGTCCTAGGGA (sugars k3 d10 k3, PS) | 50% |  |
| TGTGTTCTTGTTGATA (sugars k3 d10 k3, PS) | 69% |  |
| TGTGUTCTTGTTGATA (sugars k3 d1 m1 d8 k3, PS) | 41% |  |
| TGTTAACCTGCAGCAG (sugars k3 d10 k3, PS) | 39% |  |
| TGTTACATCACCCACT (sugars k3 d10 k3, PS) | 35% |  |
| TGTTAGGACCCAGTCT (sugars k3 d10 k3, PS) | 51% |  |
| TGTTGACCTCAAATGT (sugars k3 d10 k3, PS) | 14% |  |
| TGTTGATATTCTGTGG (sugars kkdddddddddkekek, PS) | 54% |  |
| TGTTTATGTAAGCACA (sugars k3 d10 k3, PS) | 74% |  |
| TTAAACCTTCCCTGTG (sugars k3 d9 k3 e1, PS) | 18% |  |
| TTAAACTCCAATGTGT (sugars k3 d10 k3, PS) | 36% |  |
| TTAAAGACAGGGTGGT (sugars k3 d10 k3, PS) | 21% |  |
